Entries after “also recorded” stand apart in the source; their conditions may differ.

The subject of data set [1] is autophagy. The data set is described as follows: Inhibition of autophagy by 3-MA injected into TA muscle (histology, LC3, glycogen content). In kind it is in vivo. To be noted: 40 l of 5 mg/ml per TA, two injections six days apart, harvested two to three days after second injection. Here is the method:
3-MA was administered using the highest possible safety dose (40 l of 5 mg/ml per TA) determined from the above-described study. Two injections (six days apart) were given into TA muscle. Two to three days after the second injection, the treated muscles were harvested to examine the histology, the level of autophagy marker LC3, and the glycogen content.

In data set [2] the test system is TA muscle. The class given is in vivo.
The conditions of data set [3]: intraperitoneal; Sigma MSDS; cited from earlier work.
The test system of data set [4] is Pompe disease. The note with it: cited from earlier work.
In data set [5] the test system is MLCcre: Atg7F/F: GAA−/− mice. The data set is described as follows: Effect of ERT on glycogen levels in MLCcre:Atg7F/F:GAA−/− mice (biochemical glycogen measurement, PAS staining). In kind it is in vivo, mouse. The note with it: for Glycogen level after ERT (in words): MLCcre:Atg7F/F:GAA−/− mice, fast muscle; for Glycogen level, Treated: rhGAA 100 mg/kg i.v., three injections every other week; for Excess Glycogen: treated value minus wild type level. As to the method:
(§1) Glycogen concentration in skeletal muscle was evaluated by measuring the amount of glucose released after treatment of tissue extracts with Aspergillus niger amyloglucosidase as described (Kikuchi et al., J. Clin. Invest., 101:827-833, 1998), except that the enzymatic digestion was carried out at 55° C. rather than 37° C. (Kikuchi et al., J. Clin. Invest., 101:827-833, 1998). Tissues were fixed in 3% glutaraldehyde (EM grade, Electron Microscopy sciences, Hatfield, Pa.) in 0.2M Sodium Cacodylate buffer for 4 h at 4° C., washed in 0.1M Sodium Cacodylate buffer, and stored at 4° C. in the same buffer. Samples were then imbedded in paraffin, sectioned, and stained with periodic acid-Schiff (PAS) by standard methods.
(§2) Two and a half month-old GAA−/−, MLCcre: Atg7F/F: GAA−/−, and HSAcre: Atg5F/F: GAA−/− mice received three intravenous injections of recombinant human α-glucosidase (rhGAA; Myozyme®, Genzyme Corporation, Framingham, Mass.) at a dose of 100 mg/kg every other week. To diminish a hypersensitivity reaction, diphenhydramine hydrochloride was injected intraperitoneally at a dose of 5 mg/kg 15 minutes before the second and third injections of rhGAA. The mice were sacrificed 7 days after the last injection. Twelve GAA−/−, 11 HSAcre: Atg5F/F: GAA−/−, and 9 MLCcre: Atg7F/F: GAA−/− were treated with rhGAA.

Data set [6] has as its system HSAcre: Atg5F/F: GAA−/− mice. The data set is described as follows: Effect of ERT on glycogen levels in HSAcre:Atg5F/F:GAA−/− mice (biochemical glycogen measurement, PAS staining). The class given is in vivo, mouse. To be noted: for Glycogen level, Treated: rhGAA 100 mg/kg i.v., three injections every other week; for Excess Glycogen: treated value minus wild type level. As to the method:
as §1, §2

The test system of data set [7] is GAA−/− mice. Put plainly: Effect of ERT on ubiquitinated (Ub) proteins in fast muscle of GAA−/− mice (FK2 immunoblot). In kind it is in vivo, mouse. The note with it: gastrocnemius total lysates, ERT-treated vs untreated. As to the method: Whole muscle tissues were homogenized in RIPA buffer (PBS, 1% NP40, 0.5% Sodium deoxycholate, 0.1% SDS) containing a protease inhibitor cocktail tablet (Roche Diagnostics, Mannheim, Germany). Samples were centrifuged for 30 min at 13,000 rpm at 4° C. Alternatively, detergent-soluble and -insoluble fractions from muscle tissues were obtained as previously described (Hara et al. 2006). Briefly, muscle tissues were homogenized in ice-cold 0.25 M sucrose buffer (50 mM Tris-HCl pH 7.4, 1 mM EDTA; ˜350 μl/100 mg tissue) with protease inhibitors. Homogenates were centrifuged at a low speed for […] at 4° C., and the supernatants were lysed with an equal volume of cold sucrose buffer with 1% Triton X-100. Lysates were then centrifuged at 13,000 g for […] at 4° C. to collect fractions soluble in 0.5% Triton-X-100; the pellets (Triton-X-100-insoluble fractions) were resuspended in 1% SDS in PBS.
Protein concentrations of the supernatants of the total lysates or soluble fractions were measured using Bio-Rad Protein Assay (Bio-Rad Laboratories, Inc., Hercules, Calif.). Equal amounts of protein were run on SDS-PAGE gels (Invitrogen) followed by electro-transfer onto nitrocellulose membranes (Invitrogen). […]

For data set [8], the system named is genetically engineered mice that lack expression of GAA. The note with it: mice lacking GAA; cited from earlier work.
For data set [9], the system named is GAA−/− mice. Put plainly: LAMP-1/LC3 immunostaining of single fast (psoas) fibers after ERT, GAA−/− mice. The class given is in vivo, mouse. To be noted: ERT-treated. As to the method: (§3) White gastrocnemius, soleus, and psoas muscles were removed immediately after sacrifice and pinned to Sylgaard-coated dishes for fixation with 2% paraformaldehyde in 0.1M phosphate buffer for 1 h, followed by fixation in methanol (−20° C.) for 6 min. Single fibers were obtained by manual teasing. Fibers were placed in a 24-well plate in Blocking Reagent (Vector Laboratories, Burlingame, Calif.) for 1 h. The fibers were then permeabilized, incubated with primary antibody overnight at 4° C., washed, incubated with secondary antibody for 2 h, washed again, and mounted in Vectashield (Vector Laboratories, Burlingame, Calif.) on a glass slide. The fibers were analyzed using a Zeiss 510 META confocal microscope. The white part of gastrocnemius and psoas muscles in mice are a good source of glycolytic fast-twitch type II fibers (referred to as fast fibers), whereas soleus muscle is a good source of oxidative slow-twitch type I fibers (referred to as slow fibers). At least three animals from each genotype were used to obtain single muscle fibers for immunostaining. For each immunostaining and for confocal analysis, at least 20 fibers were isolated from each of the three muscle groups. […]

The subject of data set [10] is GAA−/− mice. The data set is described as follows: Effect of ERT on glycogen levels in GAA−/− mice (biochemical glycogen measurement, PAS staining). In kind it is in vivo, mouse. The note with it: for Treated vs. Untreated GAA−/− % Reduction / Glycogen level, Treated / Excess Glycogen: GAA−/−; for Glycogen level, Treated: rhGAA 100 mg/kg i.v., three injections every other week; for Excess Glycogen: treated value minus wild type level. Here is the method:
as §1, §2

Data set [11] relates to HSAcre: Atg5F/F: GAA−/− mice. Put plainly: Effect of ERT on ubiquitinated (Ub) proteins in fast muscle of HSAcre:Atg5F/F:GAA−/− mice (FK2 immunoblot, immunostaining). The class given is in vivo, mouse. The note with it: ERT-treated vs untreated. As to the method: as §3
Protein concentrations of the supernatants of the total lysates or soluble fractions were measured using Bio-Rad Protein Assay (Bio-Rad Laboratories, Inc., Hercules, Calif.). […]

The test system of data set [12] is MLCcre: Atg7F/F: GAA−/− mice. The data set is described as follows: LAMP-1/LC3 immunostaining of single fast (psoas) fibers after ERT, MLCcre:Atg7F/F:GAA−/− mice. In kind it is in vivo, mouse. The note with it: ERT-treated. As to the method:
as §3

As to `Cn1cnc(N)c2ncnc1-2` [3-MA, 3-Methyladenine], in data set [1], the “Inhibition of autophagy in the injected muscle” value is “did not inhibit autophagy effectively”. Besides, the “Highest possible safety dose” value in [2] (40 l per TA (so in the source), intramuscular) came to 5 mg/mL. Further, the Toxicity / tolerability entry in data set [2] (mouse, in vivo, ip) is “no toxicity was observed”. Besides, the “ip LD50 dose” value in data set [3] was 280 mg/kg.
As to “ERT: recombinant human α-glucosidase (rhGAA; Myozyme®, Genzyme Corporation) given intravenously as enzyme replacement therapy”, in [4], the “Glycogen clearance from skeletal muscle” value is reported as “less effective for glycogen clearance from skeletal muscle”. Besides, the “Glycogen clearance in cardiac muscle” value in data set [4] is recorded as “effective for glycogen clearance in cardiac muscle”. Moreover, the “Glycogen level after ERT (in words)” value in data set [5] is given as “reduction of glycogen levels to normal or near normal levels”; in data set [5] (listed as recombinant enzyme), “dramatic reduction in the glycogen level approaching wild type levels”; in [6] (HSAcre:Atg5F/F:GAA−/− mice, fast muscle) it was “reduction of glycogen levels to normal or near normal levels; also recorded: complete removal of the accumulated glycogen”. Also, the “Treated vs. Untreated GAA−/− % Reduction” value in [5] (MLCcre:Atg7F/F:GAA−/−, Gastroc) is recorded as 88%; in data set [5] (MLCcre:Atg7F/F:GAA−/−, Heart) it was 100%; in data set [5] (MLCcre:Atg7F/F:GAA−/−, Quad), 82%; in [6] (HSAcre:Atg5F/F:GAA−/−, Gastroc) it was 94%; in data set [6] (HSAcre:Atg5F/F:GAA−/−, Heart), 100%; in data set [6] (HSAcre:Atg5F/F:GAA−/−, Quad), 94%. Besides, the “Treated vs. Untreated GAA−/− % Reduction” value amounted to 27% in [10] (Gastroc), 100% in data set [10] (Heart) and 28% in [10] (Quad). Also, the “Glycogen level, Treated” value stood at 8.6 ± 8.9 μg glucose/hr/mg protein in data set [5] (MLCcre:Atg7F/F:GAA−/−, Gastroc); 0.2 ± 0.4 μg glucose/hr/mg protein in data set [5] (MLCcre:Atg7F/F:GAA−/−, Heart); 13.7 ± 10 μg glucose/hr/mg protein in data set [5] (MLCcre:Atg7F/F:GAA−/−, Quad); 4.1 ± 4.9 μg glucose/hr/mg protein in data set [6] (HSAcre:Atg5F/F:GAA−/−, Gastroc); 0.0 ± 0.0 μg glucose/hr/mg protein in [6] (HSAcre:Atg5F/F:GAA−/−, Heart); 5.0 ± 4.9 μg glucose/hr/mg protein in data set [6] (HSAcre:Atg5F/F:GAA−/−, Quad). For the same compound, the figures for the “Glycogen level, Treated” value in data set [10] (Gastroc), in [10] (Heart) and in data set [10] (Quad) were 52.5 ± 22.7 μg glucose/hr/mg protein, 0.6 ± 1.2 μg glucose/hr/mg protein and 54.5 ± 29.6 μg glucose/hr/mg protein, respectively. Further, the “Excess Glycogen” value is listed as 4.2 μg glucose/hr/mg protein in data set [5] (MLCcre:Atg7F/F:GAA−/−, Gastroc); 0 μg glucose/hr/mg protein in data set [5] (MLCcre:Atg7F/F:GAA−/−, Heart); 9.3 μg glucose/hr/mg protein in data set [5] (MLCcre:Atg7F/F:GAA−/−, Quad); 0 μg glucose/hr/mg protein in data set [6] (HSAcre:Atg5F/F:GAA−/−, Gastroc); 0 μg glucose/hr/mg protein in data set [6] (HSAcre:Atg5F/F:GAA−/−, Heart); 0.6 μg glucose/hr/mg protein in [6] (HSAcre:Atg5F/F:GAA−/−, Quad). In addition, the “Excess Glycogen” value in data set [10] (Gastroc) is listed as 48.1 μg glucose/hr/mg protein; in data set [10] (Heart) it was 0 μg glucose/hr/mg protein; in [10] (Quad), 50.1 μg glucose/hr/mg protein. The “Glycogen clearance, PAS-stained sections” value is recorded as “near complete glycogen clearance” in data set [5] (MLCcre:Atg7F/F:GAA−/−, fast (gastrocnemius) muscle, 4 month-old) and “near complete glycogen clearance” in data set [6] (HSAcre:Atg5F/F:GAA−/−, fast (gastrocnemius) muscle, 4 month-old). For the same compound, the “Amount of ubiquitinated (Ub) proteins, FK2 immunoblot” value is reported as “No difference in the amount of the Ub-proteins; also recorded: No reduction of ubiquitinated-proteins” in data set [7]; “A significant drop in the amount of Ub-proteins; also recorded: significant decrease in the amount of ubiquitinated-proteins” in data set [11] (gastrocnemius, soluble and non-soluble fractions). Further, the “Glycogen clearance from type I muscle fibers” value in [8] is on record as “effective in clearing gylcogen from type I muscle fibers”. In addition, the “Glycogen clearance from type II muscle fibers” value in data set [8] is listed as “not type II muscle fibers”. The “Autophagic buildup (LC3 immunostaining)” value in data set [9] was “this buildup persists in ERT-treated GAA−/− mice”. For the same compound, the “Lysosomal size (LAMP-1 immunostaining)” value in [9] was “even larger than those in the untreated fiber”. Besides, the “Glycogen clearance after ERT (in words)” value in data set [10] (GAA−/− mice with genetically intact autophagy, skeletal muscle) was “cleared glycogen poorly”. For the same compound, the “Ub-proteins, FK2 immunostaining of single fast (psoas) myofibers” value in data set [11] is “clearly observed in untreated, but not in ERT-treated myofibers”. The “Expanded lysosomes (LAMP-1 immunostaining)” value in [12] was “reduce in size and appear normal”.

Source of the values: US8536148B2, “Disabling autophagy as a treatment for lysosomal storage diseases” (The United States of America, as Represented by the …, priority 2009, dated 2013).
